Measured values as given in patent US9969752B2, “Inhibitors of HIF prolyl hydroxylase” (MERCK SHARP & DOHME CORP., priority 2014, dated 2018).

Target: T1, Human HIF-PHD2 (Homo sapiens, UniProt Q9GZT9)
T1 construct: FLAG-tagged full length PHD2 expressed in and purified from baculovirus-infected Sf9 cells; FLAG; made in house; host or cells: baculovirus-infected Sf9 cells
Assay: Inhibition of the hydroxylation of a HIF peptide by PHD2 (time resolved fluorescence, 384-well)
Format: biochemical
Conditions: FLAG-tagged full length PHD2; 0.2 μM 2-oxoglutarate, 0.5 μM HIF-1α peptide; 45 minutes at room temperature; read-out: Human HIF-PHD2 IC50
Description: To each well of a 384-well plate, 1 μL of test compounds in DMSO (final concentration ranging from 0.3 nM to 10 uM) were added into 20 μl of assay buffer (50 mM Tris pH 7.4/0.01% Tween-20/0.1 mg/ml bovine serum albumin/10 μM ferrous sulfate/1 mM sodium ascorbate/20 μg/ml catalase) containing 0.15 μg/ml FLAG-tagged full length PHD2 expressed in and purified from baculovirus-infected Sf9 cells. After a 5 min preincubation at room temperature, the enzymatic reactions were initiated by the addition of 4 μL of substrates {final concentrations of 0.2 μM 2-oxoglutarate and 0.5 μM HIF-1α peptide biotinyl-[…] […] After incubation for 45 minutes at room temperature, the reactions were terminated by the addition of a 25 μL quench/detection mix to a final concentration of 1 mM ortho-phenanthroline, 0.1 mM EDTA, 0.5 nM anti-(His)6 LANCE reagent (Perkin-Elmer Life Sciences), 100 nM AF647-labeled streptavidin (Invitrogen), and 2 μg/ml (His)6-VHL complex {S. Tan Protein Expr. Purif.

T1 sequence (Q9GZT9 whole entry): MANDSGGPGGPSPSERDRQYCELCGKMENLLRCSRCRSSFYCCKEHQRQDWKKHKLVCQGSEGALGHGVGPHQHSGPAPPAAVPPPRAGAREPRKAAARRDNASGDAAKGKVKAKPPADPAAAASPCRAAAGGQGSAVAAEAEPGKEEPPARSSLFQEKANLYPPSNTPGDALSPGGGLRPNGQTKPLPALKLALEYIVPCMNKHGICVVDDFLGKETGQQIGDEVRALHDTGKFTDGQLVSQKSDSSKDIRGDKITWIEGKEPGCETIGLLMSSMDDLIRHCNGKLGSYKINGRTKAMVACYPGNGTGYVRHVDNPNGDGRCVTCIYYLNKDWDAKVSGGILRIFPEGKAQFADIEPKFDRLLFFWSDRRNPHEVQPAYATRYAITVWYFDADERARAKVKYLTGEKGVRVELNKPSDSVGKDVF

| Structure (SMILES) | IC50 [nM] |
| --- | --- |
| O=C(O)CNC(=O)c1c(O)c2cc(Cl)cc3c2n(c1=O)CC(c1ccc(C(F)(F)F)cc1)O3 (single isomer, unassigned) [Example 74, 2-(9-Chloro-7-hydroxy-5-oxo-2-(4-(trifluoromethyl)phenyl)-3,5-dihydro-2H-[1,4]oxazino[2,3,4-ij]quinoline-6-carboxamido)acetic acid] | 10 |
| N#Cc1ccc(C2Cn3c(=O)c(C(=O)NCC(=O)O)c(O)c4ccc(C(F)(F)F)c(c43)O2)cc1 (single isomer, unassigned) [Example 77, 2-(2-(4-cyanophenyl)-7-hydroxy-5-oxo-10-(trifluoromethyl)-3,5-dihydro-2H-[1,4]oxazino[2,3,4-ij]quinoline-6-carboxamido)acetic acid] | 2 |
| O=C(O)CNC(=O)c1c(O)c2cccc3c2n(c1=O)C(c1ccccc1)CC3 (single isomer, unassigned) [Example 130, 2-(1-Hydroxy-3-oxo-5-phenyl-3,5,6,7-tetrahydropyrido[3,2,1-ij]quinoline-2-carboxamido)acetic acid] | 18 |
| O=C(O)CNC(=O)c1c(O)c2cccc3c2n(c1=O)C(Cc1ccc(C(F)(F)F)cc1)CO3 (stereo not shown) [Example 3, 2-(7-Hydroxy-5-oxo-3-(4-(trifluoromethyl)benzyl)-3,5-dihydro-2H-[1,4]oxazino[2,3,4-ij]quinoline-6-carboxamido)acetic acid] | 21 |
| N#Cc1cc2c3c(c1)c(O)c(C(=O)NCC(=O)O)c(=O)n3C(Cc1ccc(C(F)(F)F)cc1)CO2 (stereo not shown) [Example 4, 2-(9-Cyano-7-hydroxy-5-oxo-3-(4-(trifluoromethyl)benzyl)-3,5-dihydro-2H-[1,4]oxazino[2,3,4-ij]quinoline-6-carboxamido)acetic acid] | 3 |
| O=C(O)CNC(=O)c1c(O)c2cc(Br)cc3c2n(c1=O)C(Cc1ccc(C(F)(F)F)cc1)CO3 (stereo not shown) [Example 5, 2-(9-Bromo-7-hydroxy-5-oxo-3-(4-(trifluoromethyl)benzyl)-3,5-dihydro-2H-[1,4]oxazino[2,3,4-ij]quinoline-6-carboxamido)acetic acid] | 18 |
| CS(=O)(=O)c1cc2c3c(c1)c(O)c(C(=O)NCC(=O)O)c(=O)n3C(Cc1ccc(C(F)(F)F)cc1)CO2 (stereo not shown) [Example 6, 2-(7-Hydroxy-9-(methylsulfonyl)-5-oxo-3-(4-(trifluoromethyl)benzyl)-3,5-dihydro-2H-[1,4]oxazino[2,3,4-ij]quinoline-6-carboxamido)acetic acid] | 1.7 |
| Cc1cc2c3c(c1)c(O)c(C(=O)NCC(=O)O)c(=O)n3C(Cc1ccc(C(F)(F)F)cc1)CO2 (stereo not shown) [Example 7, 2-(7-hydroxy-9-methyl-5-oxo-3-(4-(trifluoromethyl)benzyl)-3,5-dihydro-2H-[1,4]oxazino[2,3,4-ij]quinoline-6-carboxamido)acetic acid] | 37 |
| CC(O)(CO)c1cc2c3c(c1)c(O)c(C(=O)NCC(=O)O)c(=O)n3C(Cc1ccc(C(F)(F)F)cc1)CO2 (stereo not shown) [Example 8, 2-(9-(1,2-Dihydroxypropan-2-yl)-7-hydroxy-5-oxo-3-(4-(trifluoromethyl)benzyl)-3,5-dihydro-2H-[1,4]oxazino[2,3,4-ij]quinoline-6-carboxamido)acetic acid] | 30 |
| O=C(O)CNC(=O)c1c(O)c2cccc3c2n(c1=O)CC(c1ccc(C(F)(F)F)cc1)C3 (stereo not shown) [Example 9, 2-(1-Hydroxy-3-oxo-6-(4-(trifluoromethyl)phenyl)-3,5,6,7-tetrahydropyrido[3,2,1-ij]quinoline-2-carboxamido)acetic acid] | 7.2 |

Continued, values first:

| IC50 [nM] | Structure (SMILES) |
| --- | --- |
| 14 | O=C(O)CNC(=O)c1c(O)c2c(OC(F)(F)F)ccc3c2n(c1=O)CC(c1ccc(C(F)(F)F)cc1)O3 (single isomer, unassigned) [Example 86, 2-(7-Hydroxy-5-oxo-8-(trifluoromethoxy)-2-(4-(trifluoromethyl)phenyl)-3,5-dihydro-2H-[1,4]oxazino[2,3,4-ij]quinoline-6-carboxamido)acetic acid] |
| 8.5 | N#Cc1ccc(C2Cn3c(=O)c(C(=O)NCC(=O)O)c(O)c4c(OC(F)(F)F)ccc(c43)O2)cc1 (single isomer, unassigned) [Example 88, 2-(2-(4-Cyanophenyl)-7-hydroxy-5-oxo-8-(trifluoromethoxy)-3,5-dihydro-2H-[1,4]oxazino[2,3,4-ij]quinoline-6-carboxamido)acetic acid] |
| 6.4 | O=C(O)CNC(=O)c1c(O)c2cccc3c2n(c1=O)CC(c1ccc(C(F)(F)F)cc1)O3 (stereo not shown) [Example 10, 2-(7-Hydroxy-5-oxo-2-(4-(trifluoromethyl)phenyl)-3,5-dihydro-2H-[1,4]oxazino[2,3,4-ij]quinoline-6-carboxamido)acetic acid] |
| 2.6 | O=C(O)CNC(=O)c1c(O)c2c(Br)ccc3c2n(c1=O)CC(c1ccc(C(F)(F)F)cc1)O3 (stereo not shown) [Example 11, 2-(8-Bromo-7-hydroxy-5-oxo-2-(4-(trifluoromethyl)phenyl)-3,5-dihydro-2H-[1,4]oxazino[2,3,4-ij]quinoline-6-carboxamido)acetic acid] |
| 19 | CS(=O)(=O)c1ccc2c3c1c(O)c(C(=O)NCC(=O)O)c(=O)n3CC(c1ccc(C(F)(F)F)cc1)O2 (stereo not shown) [Example 12, 2-(7-Hydroxy-8-(methylsulfonyl)-5-oxo-2-(4-(trifluoromethyl)phenyl)-3,5-dihydro-2H-[1,4]oxazino[2,3,4-ij]quinoline-6-carboxamido)acetic acid] |
| 1 | N#Cc1ccc2c3c1c(O)c(C(=O)NCC(=O)O)c(=O)n3CC(c1ccc(C(F)(F)F)cc1)O2 (stereo not shown) [Example 13, 2-(8-Cyano-7-hydroxy-5-oxo-2-(4-(trifluoromethyl)phenyl)-3,5-dihydro-2H-[1,4]oxazino[2,3,4-ij]quinoline-6-carboxamido)acetic acid] |
| 4.4 | O=C(O)CNC(=O)c1c(O)c2cc(Br)cc3c2n(c1=O)CC(c1ccc(C(F)(F)F)cc1)O3 (stereo not shown) [Example 16, 2-(9-Bromo-7-hydroxy-5-oxo-2-(4-(trifluoromethyl)phenyl)-3,5-dihydro-2H-[1,4]oxazino[2,3,4-ij]quinoline-6-carboxamido)acetic acid] |
| 5.6 | Cc1cc2c3c(c1)c(O)c(C(=O)NCC(=O)O)c(=O)n3CC(c1ccc(C(F)(F)F)cc1)O2 (stereo not shown) [Example 19, 2-(7-Hydroxy-9-methyl-5-oxo-2-(4-(trifluoromethyl)phenyl)-3,5-dihydro-2H-[1,4]oxazino[2,3,4-ij]quinoline-6-carboxamido)acetic acid] |
| 2.3 | O=C(O)CNC(=O)c1c(O)c2ccc(Br)c3c2n(c1=O)CC(c1ccc(C(F)(F)F)cc1)O3 (stereo not shown) [Example 22, 2-(10-Bromo-7-hydroxy-5-oxo-2-(4-(trifluoromethyl)phenyl)-3,5-dihydro-2H-[1,4]oxazino[2,3,4-ij]quinoline-6-carboxamido)acetic acid] |
| 5.4 | Cc1ccc2c(O)c(C(=O)NCC(=O)O)c(=O)n3c2c1OC(c1ccc(C(F)(F)F)cc1)C3 (stereo not shown) [Example 25, 2-(7-Hydroxy-10-methyl-5-oxo-2-(4-(trifluoromethyl)phenyl)-3,5-dihydro-2H-[1,4]oxazino[2,3,4-ij]quinoline-6-carboxamido)acetic acid] |

Same assay, conditions: FLAG-tagged full length PHD2; 0.2 μM 2-oxoglutarate, 0.5 μM HIF-1α peptide; 45 minutes at room temperature; read-out: MS m/z (M + 1)+ and human HIF-PHD2 IC50

| IC50 [nM] | Structure (SMILES) |
| --- | --- |
| 2.8 | O=C(O)CNC(=O)c1c(O)c2ccc(Cl)c3c2n(c1=O)CC(c1ccc(C(F)(F)F)cc1)O3 (single isomer, unassigned) [Example 73, 2-(10-chloro-7-hydroxy-5-oxo-2-(4-(trifluoromethyl)phenyl)-3,5-dihydro-2H-[1,4]oxazino[2,3,4-ij]quinoline-6-carboxamido)acetic acid] |
| 12 | O=C(O)CNC(=O)c1c(O)c2cc(Cl)cc3c2n(c1=O)CC(c1ccc(C(F)(F)F)cc1)O3 (single isomer, unassigned) [Example 75, 2-(9-chloro-7-hydroxy-5-oxo-2-(4-(trifluoromethyl)phenyl)-3,5-dihydro-2H-[1,4]oxazino[2,3,4-ij]quinoline-6-carboxamido)acetic acid] |
| 7.9 | N#Cc1ccc(C2Cn3c(=O)c(C(=O)NCC(=O)O)c(O)c4ccc(C(F)(F)F)c(c43)O2)cc1 (single isomer, unassigned) [Example 78, 2-(2-(4-cyanophenyl)-7-hydroxy-10-(trifluoromethyl)-3,5-dihydro-2H-[1,4]oxazino[2,3,4-ij]quinoline-6-carboxamido)acetic acid] |
| 17 | O=C(O)CNC(=O)c1c(O)c2c(OC(F)(F)F)ccc3c2n(c1=O)CC(c1ccc(C(F)(F)F)cc1)O3 (single isomer, unassigned) [Example 87, 2-(7-hydroxy-5-oxo-8-(trifluoromethoxy)-2-(4-(trifluoromethyl)phenyl)-3,5-dihydro-2H-[1,4]oxazino[2,3,4-ij]quinoline-6-carboxamido)acetic acid] |
| 34 | N#Cc1ccc(C2Cn3c(=O)c(C(=O)NCC(=O)O)c(O)c4c(OC(F)(F)F)ccc(c43)O2)cc1 (single isomer, unassigned) [Example 89, 2-(2-(4-cyanophenyl)-7-hydroxy-5-oxo-8-(trifluoromethoxy)-3,5-dihydro-2H-[1,4]oxazino[2,3,4-ij]quinoline-6-carboxamido)acetic acid] |
